According to publication PMC9516332 (Frontiers in Oncology, 2022):
Where two headings read alike, the source gives them in different places.

Assays:
Assay in all cases: Kinase panel profiling at 1 µmol/L (MSA or IMAP), percentage inhibition
Format in all cases: biochemical
[1] = target: panel of 255 wild-type kinases (Homo sapiens, UniProt P48729); conditions: kinase CK1α; 1 µmol/L single concentration; read-out: %-inhibition at 1 µmol/L, CK1α
[2] = target: panel of 255 wild-type kinases (Homo sapiens, UniProt Q16288); conditions: kinase TRKC; 1 µmol/L single concentration; read-out: %-inhibition at 1 µmol/L, TRKC
[3] = target: panel of 255 wild-type kinases (Homo sapiens, UniProt Q16512); conditions: kinase PKN1; 1 µmol/L single concentration; read-out: %-inhibition at 1 µmol/L, PKN1
[4] = target: panel of 255 wild-type kinases (Homo sapiens, UniProt Q15119); conditions: kinase PDHK2; 1 µmol/L single concentration; read-out: %-inhibition at 1 µmol/L, PDHK2
[5] = target: panel of 255 wild-type kinases (Homo sapiens, UniProt P50750); conditions: CDK9/CycT1 kinase assay; 1 µmol/L single concentration; read-out: %-inhibition CDK9/CycT1
[6] = target: panel of 255 wild-type kinases (Homo sapiens, UniProt Q9P1W9); conditions: kinase PIM2; 1 µmol/L single concentration; read-out: %-inhibition at 1 µmol/L, PIM2
[7] = target: T1, panel of 255 wild-type kinases (Homo sapiens, UniProt Q9NRA0); conditions: kinase SPHK2; 1 µmol/L single concentration; read-out: %-inhibition at 1 µmol/L, SPHK2
T1 sequence (Q9NRA0 1-654): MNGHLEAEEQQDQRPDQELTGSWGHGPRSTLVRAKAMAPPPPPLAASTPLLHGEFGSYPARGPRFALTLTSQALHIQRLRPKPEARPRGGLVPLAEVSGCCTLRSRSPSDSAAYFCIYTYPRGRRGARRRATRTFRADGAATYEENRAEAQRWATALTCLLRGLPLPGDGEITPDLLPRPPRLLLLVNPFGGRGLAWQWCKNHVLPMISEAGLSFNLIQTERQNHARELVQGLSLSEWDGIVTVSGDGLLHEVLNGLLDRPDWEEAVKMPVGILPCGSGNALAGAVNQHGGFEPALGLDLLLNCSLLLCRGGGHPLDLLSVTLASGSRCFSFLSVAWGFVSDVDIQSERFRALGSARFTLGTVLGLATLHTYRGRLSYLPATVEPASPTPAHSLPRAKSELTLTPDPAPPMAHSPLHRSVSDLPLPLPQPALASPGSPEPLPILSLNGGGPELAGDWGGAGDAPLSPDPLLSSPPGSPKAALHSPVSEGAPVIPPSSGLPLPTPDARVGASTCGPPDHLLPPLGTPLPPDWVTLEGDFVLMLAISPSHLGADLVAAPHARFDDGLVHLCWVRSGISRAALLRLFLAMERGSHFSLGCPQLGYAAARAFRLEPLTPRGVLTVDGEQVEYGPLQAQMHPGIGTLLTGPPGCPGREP

[8] = target: T2, panel of 255 wild-type kinases (Homo sapiens, UniProt Q8TDC3); conditions: BRSK1 kinase assay; 1 µmol/L single concentration; read-out: %-inhibition BRSK1
T2 sequence (Q8TDC3 1-778): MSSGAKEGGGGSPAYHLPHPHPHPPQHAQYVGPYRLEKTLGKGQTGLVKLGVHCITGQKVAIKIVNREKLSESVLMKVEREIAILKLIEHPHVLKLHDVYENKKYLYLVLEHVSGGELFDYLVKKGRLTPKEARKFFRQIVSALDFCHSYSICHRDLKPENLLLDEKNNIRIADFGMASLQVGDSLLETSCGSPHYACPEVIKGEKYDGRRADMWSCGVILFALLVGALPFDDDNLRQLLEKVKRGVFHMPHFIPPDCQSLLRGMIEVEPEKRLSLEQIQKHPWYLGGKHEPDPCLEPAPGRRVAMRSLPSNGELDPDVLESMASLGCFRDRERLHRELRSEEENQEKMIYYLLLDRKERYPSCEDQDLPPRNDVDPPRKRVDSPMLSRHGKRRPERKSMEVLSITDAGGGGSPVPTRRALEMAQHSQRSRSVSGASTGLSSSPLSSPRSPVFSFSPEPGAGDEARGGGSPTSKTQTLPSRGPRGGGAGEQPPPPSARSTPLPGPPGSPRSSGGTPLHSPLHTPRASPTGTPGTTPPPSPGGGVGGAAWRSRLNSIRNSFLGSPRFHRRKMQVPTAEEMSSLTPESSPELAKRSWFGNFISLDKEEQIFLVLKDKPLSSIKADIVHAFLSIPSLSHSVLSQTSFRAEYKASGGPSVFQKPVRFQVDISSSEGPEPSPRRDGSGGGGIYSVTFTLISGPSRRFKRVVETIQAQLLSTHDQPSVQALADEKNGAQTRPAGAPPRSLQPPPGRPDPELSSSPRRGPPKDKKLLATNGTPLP

[9] = target: panel of 255 wild-type kinases (Homo sapiens, UniProt Q9HCP0); conditions: kinase CK1γ1; 1 µmol/L single concentration; read-out: %-inhibition at 1 µmol/L, CK1γ1
[10] = target: panel of 255 wild-type kinases (Homo sapiens, UniProt P24941); conditions: 1 µmol/L single concentration
[11] = target: T3, panel of 255 wild-type kinases (Homo sapiens, UniProt P42681); conditions: kinase TXK; 1 µmol/L single concentration; read-out: %-inhibition at 1 µmol/L, TXK
T3 sequence (P42681 1-527): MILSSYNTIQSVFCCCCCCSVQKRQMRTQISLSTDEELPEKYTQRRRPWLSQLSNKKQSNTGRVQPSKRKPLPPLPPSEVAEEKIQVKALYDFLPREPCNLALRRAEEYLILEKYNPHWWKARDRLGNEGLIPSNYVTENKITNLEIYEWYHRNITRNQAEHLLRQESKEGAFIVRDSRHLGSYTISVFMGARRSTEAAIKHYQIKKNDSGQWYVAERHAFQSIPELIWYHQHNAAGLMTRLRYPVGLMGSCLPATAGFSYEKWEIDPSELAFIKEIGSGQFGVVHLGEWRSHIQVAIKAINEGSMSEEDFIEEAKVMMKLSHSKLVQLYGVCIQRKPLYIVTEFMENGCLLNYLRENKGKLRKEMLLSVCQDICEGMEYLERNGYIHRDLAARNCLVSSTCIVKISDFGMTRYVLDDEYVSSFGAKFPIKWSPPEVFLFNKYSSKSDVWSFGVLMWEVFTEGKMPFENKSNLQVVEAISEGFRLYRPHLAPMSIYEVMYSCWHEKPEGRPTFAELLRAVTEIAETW

[12] = CDK2/CycA2 kinase assay, read-out: %-inhibition CDK2/CycA2
[13] = CDK2/CycE1 kinase assay, read-out: %-inhibition CDK2/CycE1

Structure (SMILES)	inhibition at 1 µM [1]	inhibition at 1 µM [2]	inhibition at 1 µM [3]	inhibition at 1 µM [4]	inhibition at 1 µM [5]	inhibition at 1 µM [6]	inhibition at 1 µM [7]	inhibition at 1 µM [8]	inhibition at 1 µM [9]	inhibition at 1 µM [10, 12]	inhibition at 1 µM [10, 13]	inhibition at 1 µM [11]
CO[C@]1(C(=O)N[C@@H](C)c2ccc(-n3cc(F)cn3)nc2)CC[C@H](c2nc(C)cc(Nc3cc(C)[nH]n3)n2)CC1 [pralsetinib]	-2.22%	98%	27%	1.11%	6%	-4%	-2.48%	12%	1.83%	66%	58%	41%
COc1cc2ncnc(Nc3ccc(F)c(Cl)c3)c2cc1NC(=O)/C=C/CN1CCCCC1 [dacomitinib]	8%	-0.0882%	16%	2.44%	3.6%	-3%	7.54%	14%	1.84%	-13%	-16%	80%
CCn1c(=O)c(-c2cc(NC(=O)Nc3ccccc3)c(F)cc2Br)cc2cnc(NC)cc21 [ripretinib]	11%	54%	10%	0.884%	0.112%	-3%	-10%	1.77%	-0.282%	-11%	-12%	11%
Cc1nc(NC(=O)N2CCC[C@H]2C(N)=O)sc1-c1ccnc(C(C)(C)C(F)(F)F)c1 [alpelisib]	-14%	2.52%	8%	0.0902%	-0.929%	-6.4%	6.5%	12%	-1.77%	-2.39%	-10%	-4%
C=CC(=O)N1CCC([C@@H]2CCNc3c(C(N)=O)c(-c4ccc(Oc5ccccc5)cc4)nn32)CC1 [zanubrutinib]	-0.607%	-3.55%	-11%	5%	-1.15%	-7%	-6.64%	-1.87%	-3.73%	-2.82%	-15%	89%
O=C(Nc1cnn2ccc(N3CCC[C@@H]3c3cc(F)ccc3F)nc12)N1CC[C@H](O)C1 [larotrectinib]	1.46%	101%	7%	5%	-0.399%	-6.57%	-1.56%	-0.915%	-4.74%	-2.44%	-18%	16%
Cc1cc(Nc2ncnc3ccc(NC4=NC(C)(C)CO4)cc23)ccc1Oc1ccn2ncnc2c1 [tucatinib]	0.588%	2.53%	18%	-2%	1.53%	-3.72%	0.368%	0.339%	11%	-0.285%	-36%	5%
FC(F)(F)c1ccc(CNc2ccc(Cc3c[nH]c4ncc(Cl)cc34)cn2)cn1 [pexidartinib]	4.47%	81%	-4.55%	4%	7%	-2.72%	7%	9%	10%	12%	-4%	6.34%
Cn1cnc2c(F)c(Nc3ccc(Br)cc3F)c(C(=O)NOCCO)cc21 [binimetinib]	9%	-0.843%	6%	-1.13%	-1.47%	-6.4%	-7.55%	-0.585%	1.68%	2.3%	-14%	-3%
CN1CCN(c2ccc(C(=O)Nc3n[nH]c4ccc(Cc5cc(F)cc(F)c5)cc34)c(NC3CCOCC3)c2)CC1 [entrectinib]		100%	64%	4.24%	1.79%	-7.56%	20%	8%	-1.18%	20%	11%	98%
C[C@H]1Oc2cc(cnc2N)-c2c(nn(C)c2C#N)CN(C)C(=O)c2ccc(F)cc21 [lorlatinib]	-12%		4.68%	1.88%	-2.48%	-3.36%	10%	29%	-2.3%	1.87%	-6.33%	3.52%
